These results are taken from ChEMBL document CHEMBL3507680, “University of Dundee, Gates Library screen for HepG2 cell viability”.

SMILES strings stand for the structures.

The series can be described thus: Human HepG2 cell viability assay in 384 well format. The format is toxicity, cell-based. Details: dose 125 nL, time 70.5 hour; cytotoxicity at 70.5 h: concentration not given beside the values. To be noted: HepG2 cells, read-out: Inhibition.
As to `Cc1cccnc1NCCNC(=O)C1CCN(Cc2ccco2)CC1`, the cytotoxicity at 70.5 h amounted to 9.3%. As for `CN1CCC2(CC1)CN(Cc1ccc(C3CCCCO3)o1)CCCN2C` (configuration not stated), the figure is -4.97%. As for `CC(C)c1cc(C(=O)N(Cc2ccncc2)CC2CCCO2)no1` (configuration not stated), the figure is -6.68%; as for `Cc1cc(NCCCNc2cccnc2)n2nc(C)c(C)c2n1`, -10.7%.

For the molecule `OCC1(CC2CC2)CCCN(Cc2cnc(N3CCOCC3)nc2)C1` (configuration not stated), the cytotoxicity at 70.5 h was -5.42%.

Turning to `CCc1nc(C)cc(NC(C)C(=O)Nc2cc(F)ccc2C)n1` (configuration not stated), the cytotoxicity at 70.5 h was -15.5%. As for `CCc1cc(C(=O)N2CCC(C3CCN(c4ncccn4)CC3)C2)on1` (configuration not stated), the figure is 2.57%; as for `Nc1cc(C(=O)N2CCCC3(C=Cc4ccccc4O3)CC2)ccn1` (configuration not stated), -4.49%; as for `O=C(CN1CCN(CC2CCOc3ccccc3C2)CC1)N1CCCC1` (configuration not stated), -13%.

On to `Cc1cc(C(=O)N(C)Cc2cnn(C)c2)c(NC(=O)C(C)(C)C)s1`, for which the cytotoxicity at 70.5 h is -12.1%. As for `CNc1nc(C(=O)N2CCN(c3ccc(Cl)c(Cl)c3)CC2)cs1`, the figure is -6.48%; as for `CCC(=O)NC(CC)c1ccccc1C` (configuration not stated), -5.25%.

For the molecule `Oc1ccc(N2CCC(Cc3ccccc3)CC2)nn1`, the cytotoxicity at 70.5 h was -4.56%. In the case of `Cc1cc(C(=O)N(C)Cc2ccn[nH]2)c(NC(=O)C(C)(C)C)s1`, the cytotoxicity at 70.5 h was -9.88%.

Consider `COc1ccc2c(c1)OCC(Cc1cnc(N)c(C)c1)C2` (configuration not stated), for which the cytotoxicity at 70.5 h came to 1.49%. For the molecule `CCn1c(C2CCCN(Cc3ccc(F)cc3Cl)C2)nn(C)c1=O` (configuration not stated), the cytotoxicity at 70.5 h is 6.43%.

Turning to `COCCOC1CCN(C(C(=O)O)c2c(Cl)cccc2OC)CC1` (configuration not stated), the cytotoxicity at 70.5 h is -10.5%. As for `Cn1ncc(NC(=O)Cn2ccc(-c3cccc(F)c3)n2)n1`, the figure is 1.6%; as for `CCOC(=O)c1cc2c(=O)[nH]c(=O)n(CCc3ccccc3)c2nc1C`, -7.68%; as for `COCC(=O)N1CCC(C(=O)Nc2ccc(S(N)(=O)=O)cc2)CC1`, -7.49%.

As for `Cc1ccc(NC(=O)c2cc3c(=O)n(C)c(=O)n(C)c3nc2C)cc1Cl`, the cytotoxicity at 70.5 h was 1.87%.

With `Cc1ccc2c(c1)SCC(=O)N2CC(=O)N1CCC[C@H]1c1nc(C)no1`, the cytotoxicity at 70.5 h is -5.13%. As for `Cn1c(CN2CCCC2)nnc1C1CCCN(C(=O)CN2CCCC2)C1` (configuration not stated), the figure is 2.51%; as for `CSc1ncccc1C(=O)N1C[C@H]2CC[C@@H]1CN(C(=O)N(C)C)C2`, -7.79%. Regarding `Cc1cc2c(c(-c3cnccn3)c1)OC(CN)C2` (configuration not stated), the cytotoxicity at 70.5 h was -6.44%.

For `Cc1ccc(O)c(CN2CCn3nc(C(=O)N4CCCC4)cc3C2)n1`, the cytotoxicity at 70.5 h worked out at 0.113%.

Consider `COc1ccc(-c2cccc3c2OC(CN)C3)cc1F` (configuration not stated), for which the cytotoxicity at 70.5 h came to 5.9%. As for `c1cncc(CCc2nc(C3CC3)nn2-c2ccc3c(c2)OCCO3)c1`, the figure is 21.8%; as for `CSCCc1c(-c2ccccc2)ncn1CC(C)(C)N1CCCC1`, -10.9%; as for `Cc1ccc(N2CCC(C(O)c3cccs3)CC2)nn1` (configuration not stated), -4.12%. As for `Cc1c[nH]c(CN2CCCn3nc(CNS(C)(=O)=O)cc3C2)n1`, the figure is 16%. As for `Cc1ccc(OCC2CCCN(C(=O)c3csc(CN(C)C)n3)C2)cc1` (configuration not stated), the figure is -4.88%; as for `CCC[C@H]1CN(CCS(C)(=O)=O)C[C@@H]1NC(=O)c1ccccn1`, -5.77%. As to `CC(=O)NCc1nnc2n1CCN(c1nc(C)nc3sccc13)CC2`, the cytotoxicity at 70.5 h was -7.13%. As for `O=C(N[C@@H]1CCNC[C@H]1O)c1ccccc1OC(F)(F)C(F)F`, the figure is 0.818%; as for `C=C(C)CNC(=O)C1CCCN(C2CCN(C(C)C)CC2)C1` (configuration not stated), -2.47%. As for `CCNC(=O)[C@@H]1C[C@@H](NC(=O)Cc2cc(C)no2)CN1Cc1ccsc1`, the figure is -12.7%; as for `COc1ccccc1OCc1cc(C(=O)N2C[C@@H](C)O[C@@H](C)C2)n[nH]1`, -11.2%. Turning to `CC(C)c1cc(N(C)Cc2noc(C3CCCC3)n2)n2nccc2n1`, the cytotoxicity at 70.5 h is -13.6%. As for `Cn1cc(C(=O)N2CCCCC2CCc2ccccc2)cn1` (configuration not stated), the figure is -10.6%. As for `CC(C)[C@@H](C)NC(=O)N1CCn2nc(C(=O)NCCN(C)C)cc2C1`, the figure is -0.748%; as for `Cc1ncsc1C(=O)N1CCc2[nH]nc(-c3ccc4c(c3)OCO4)c2C1`, 13.6%. On to `Cc1ccc([C@@H]2CN(S(=O)(=O)c3cc(C)ccc3F)C[C@H]2N(C)C)cc1`, for which the cytotoxicity at 70.5 h was -8.32%. As to `COc1cccc(OCC2CCCN(Cc3ncc[nH]3)C2)c1` (configuration not stated), the cytotoxicity at 70.5 h is 33.4%. Turning to `CC(C1CCN(Cc2cccc(OC(F)F)c2)CC1)N1CCOCC1` (configuration not stated), the cytotoxicity at 70.5 h is -9.64%. As for `Cc1c(-c2n[nH]c3c2CN(CC2CCOC2)CC3)cccc1C(F)(F)F` (configuration not stated), the figure is -6.06%. As for `CCNc1nc(C)c(C(=O)N(C)Cc2noc(C)n2)s1`, the figure is 11.7%; as for `CC(C)n1cc(C(=O)NCC(CO)Cc2cccs2)cn1` (configuration not stated), -8.73%. As for `COCCN(C/C=C/c1ccccc1)Cc1[nH]cnc1C`, the figure is 1.05%; as for `CN1C(=O)CC(C(=O)O)C12CCN(c1ccc3ccccc3n1)CC2` (configuration not stated), -4.07%; as for `CCCc1n[nH]cc1C(=O)N1CCCC(c2nccn2CC2CC2)C1` (configuration not stated), -6.16%.

Take `O=C(NCc1cc2n(n1)CCCN(Cc1ccc(CO)o1)C2)C1CCC1`: the cytotoxicity at 70.5 h was 18.2%.

As for `O=C1O[C@@H]2CN(S(=O)(=O)N3CCCC3)C[C@@H]2N1CCc1cccc(Cl)c1`, the cytotoxicity at 70.5 h was 0.28%.

As to `COc1ccc(C(=O)N2CCN(C(=O)c3csc(C(C)C)n3)CC2)cc1`, the cytotoxicity at 70.5 h came out at 28%. As for `O=C(CCn1cncn1)N1C[C@H]2CC[C@@H]1CN(Cc1ccncc1)C2`, the figure is 16.7%. As for `CN(Cc1ccc2nonc2c1)C(=O)CCc1cc2n(n1)CCCNC2`, the figure is -6.8%.

Regarding `CCN(C)C[C@@H]1CN(S(=O)(=O)c2ccc(OC)cc2)C[C@@H]1CO`, the cytotoxicity at 70.5 h was found to be 10.4%. As for `O=C1CCNC(=O)N1CC(=O)N1CCC1c1ccc(F)cc1` (configuration not stated), the figure is -10.7%. As for `CCC(CO)N(Cc1ccccn1)C(=O)c1ccc(F)c(F)c1` (configuration not stated), the figure is -6.83%; as for `Cc1nc(O)cc(CN2C[C@H](NC(=O)C3CCC3)[C@@H](C3CC3)C2)n1`, -3.55%; as for `CC(C)[C@H]1CN(Cc2c[nH]cn2)C[C@@H]1NC(=O)CC1CCC1`, -6.54%. As for `O=c1[nH]c(-c2ccccc2F)nc2c1CCNC2`, the figure is 14.4%. `Cn1ncc2c(N3CCC3)nc(-c3ccncc3)nc21`: the cytotoxicity at 70.5 h was found to be 4.72%. `CCc1nnc(CN(CC)C(=O)C2CCC(=O)N(C3CCCC3)C2)o1` (configuration not stated): the cytotoxicity at 70.5 h is -4.66%.

As to `O=C(Nc1ccc2ncsc2c1)N1CCCN([C@H]2COC[C@@H]2O)CC1`, the cytotoxicity at 70.5 h was 0.731%.

For the molecule `CNc1nc(C)c(C(=O)N2CCCCC2CCc2ccccc2)s1` (configuration not stated), the cytotoxicity at 70.5 h is -5.18%. With `NC(=O)CCC1CCCN(c2ncnc3c2Cc2ccccc2OC3)C1` (configuration not stated), the cytotoxicity at 70.5 h was -4.64%. For the molecule `CCc1[nH]c2c(CNC(=O)C3CCS(=O)(=O)CC3)cc(C)cc2c1C`, the cytotoxicity at 70.5 h is -7%. As for `COCc1ccccc1C(=O)N1CCCC1Cn1nc(C)cc1C` (configuration not stated), the figure is 0.418%.

On to `Cc1cc(C)n(CC2CCCN2C(=O)c2cccc3c2OCCO3)n1` (configuration not stated), for which the cytotoxicity at 70.5 h was -3.57%.

On to `Cc1cnn(CC2CCCN2C(=O)c2cccc3[nH]ncc23)c1` (configuration not stated), for which the cytotoxicity at 70.5 h worked out at 1.32%. Turning to `CC(C)c1nc(C2CCCN2C(=O)c2cnns2)no1` (configuration not stated), the cytotoxicity at 70.5 h is -1.79%.

`Cc1cc(C)n(CC2CCCN2C(=O)c2cccc3c2OCO3)n1` (configuration not stated): the cytotoxicity at 70.5 h is -3.49%. As for `Cc1nc(C)n(C2CCCN(C(=O)c3ccc(OC(C)C)nc3)C2)n1` (configuration not stated), the figure is -0.207%. Turning to `Nc1nc(CN2CCCC2Cn2cncn2)nc2ccccc12` (configuration not stated), the cytotoxicity at 70.5 h is -2.37%. As for `c1ccc2c(N3CCCCC3Cn3cccn3)ncnc2c1` (configuration not stated), the figure is -1.4%. As for `Cc1nc(C)n(C2CCCN(C(=O)c3ccc(CN(C)C)cc3)C2)n1` (configuration not stated), the figure is -4.23%; as for `CC(=O)N1CCCN(C(=O)c2ccc(Cn3ccccc3=O)o2)CC1`, 2.33%. As for `CC(C)CN1CCN(C(=O)CCn2cccn2)CC1`, the figure is -1.87%; as for `CC(=O)N(Cc1ncc(C(C)C)o1)C1CCN(Cc2ccno2)C1` (configuration not stated), 1.29%; as for `CCc1ccc(C(CNC(=O)c2c(C)noc2C)N(C)C)cc1` (configuration not stated), 5.58%.

For `COc1ccccc1CC(=O)N1CCC(NCc2ccncc2)CC1`, the cytotoxicity at 70.5 h was -1.58%. As for `COc1ccccc1CC(=O)N1CCC(NCc2ccc(C)o2)CC1`, the figure is -11.2%; as for `CCCC1CCCN(C(=O)CCn2cccn2)CC1` (configuration not stated), 22.3%. As for `c1cnc(-c2nc(CN3CCCN(Cc4cccs4)CC3)cs2)nc1`, the figure is -3.19%. As for `CCc1nc(C2CCCN2Cc2nnc(C3CC3)o2)no1` (configuration not stated), the figure is -3.82%; as for `NC(=O)C1CCN(C(=O)NCc2csc(Br)c2)CC1`, -7.32%; as for `CC(C)N1CCN(C(=O)c2ccc(Cn3ccccc3=O)o2)CC1`, -5.81%. For `O=C(Nc1ccc(CCN2CCOCC2)cc1)C1CCCC1`, the cytotoxicity at 70.5 h was -3.35%. As for `O=C(NCCNc1ccccn1)Nc1cc(C(F)(F)F)c[nH]c1=O`, the figure is -3.73%.

In the case of `O=C(NCCc1cccnc1)Nc1cc(C(F)(F)F)c[nH]c1=O`, the cytotoxicity at 70.5 h was 14.6%. As for `O=C(CCNc1ncccn1)Nc1cc(C(F)(F)F)c[nH]c1=O`, the figure is -6.4%; as for `O=C(NCCC1=CCCCC1)Nc1cc(C(F)(F)F)c[nH]c1=O`, 0.799%. As to `Cc1ccc(CCNC(=O)Nc2cc(C(F)(F)F)c[nH]c2=O)o1`, the cytotoxicity at 70.5 h was -4.56%.

As to `O=C(NCCc1ccco1)Nc1cc(C(F)(F)F)c[nH]c1=O`, the cytotoxicity at 70.5 h is -0.302%. As for `Cc1nc2n(n1)CC(NCc1nc(-c3ccccn3)no1)CC2` (configuration not stated), the figure is -5.58%. As for `CCOC(=O)c1sc2ccsc2c1CNC(=O)COC`, the figure is 3.32%.
